Patent publication US7468443B2, “Alkyl ether derivatives or salts thereof” (Toyama Chemical Co., Ltd., priority 2001, dated 2008)
Where a name gives a salt, the structure may show the parent alone.

Key:
PC12 cells = assay: Activity to accelerate neurite outgrowth (NGF-treated PC12 cells); format: cell-based, rat; settings: test compound 10 μM with 2.5s-NGF 40 ng/mL, 48 hours; neutrite outgrowth rate due to NGF taken as 100%
Protocol: [Activity to Accelerate Neurite Outgrowth]
PC12 cells [rat adrenomedullary chromaffinoma (NGF responders)] were cultured in an incubator (5% CO2, 37° C.) by using RPMI1640 medium (available from Nissui Pharmaceutical Co., Ltd.) containing 5% heat inactivated (56° C., 30 minutes) horse serum (available from Bio-Whittaker Inc.), 5% heat inactivated (56° C., 30 minutes) fetal calf serum (available from Sigma Chemical Co.) and 25 μg/ml gentamicin (available from GIBCO BRL).
The cultured PC12 cells were incubated at 37° C. for 30 minutes in phosphate-buffered physiological saline containing 1 mM EDTA, to be detached from a culture flask. The concentration of the cultured PC12 cells was adjusted to 5×10^4 cells/mL with RPMI1640 medium containing 1.5% heat inactivated horse serum, 1.5% heat inactivated fetal calf serum and 25 μg/ml gentamicin, and the resulting cell suspension was dispensed in 2 ml portions into 35-mm tissue culture dishes (mfd. by Falcon Inc.) coated with 0.01% polyornithine [dissolved in 150 mM borate buffer (pH 8.4)]. Then, 2.5s-NGF (available from Wako Pure Chemical Industries, Ltd.) [dissolved in phosphate-buffered physiological saline containing 0.1% bovine serum albumin] and each test compound were added to the medium at the same time so as to adjust their final concentrations to 40 ng/mL and 10 μM, respectively, followed by culturing under conditions of 5% CO2 and 37° C. After 48 hours of the culturing, cells were fixed in a 10% neutral formalin solution for 30 minutes, washed with phosphate-buffered physiological saline and distilled water, and then dried. […] The percentage of the number of cells having an neutrite extended to a length longer than the diameter of the cell body relative to the total number of cells observed (neutrite outgrowth rate) was calculated.
The activity to accelerate neutrite outgrowth was calculated according to the following expression as a neutrite outgrowth acceleration rate attained by the addition of each test compound, by taking a neutrite outgrowth rate due to NGF as 100%: (neutrite outgrowth rate attained by addition of each test compound)/(neutrite outgrowth rate due to NGF)×100 (%)

sciatic nerve = assay: Activity to accelerate nerve regeneration (cut sciatic nerve, silicone tube model); format: in vivo, SD strain rats; settings: 1 mg/kg orally once a day from the seventh day; measured 21 days after cutting the nerve; regeneration distance relative to control group x100
Protocol: [Activity to Accelerate Nerve Regeneration]
The test was carried out according to the method described in J. Pharmaco. Exp. Ther., Vol. 290, page 348 (1999) and Neuroscience, vol. 88, page 257 (1999).
SD strain rats (male, aged 6 to 7 weeks, and weighing 170 to 280 g) were anesthetized with pentobarbital, and the left sciatic nerve of each rat was exposed in the femoral region, separated from the surrounding connective tissue, and then cut at a distal position which was about 1 cm apart from the gluteus. The ends of the nerve were inserted into a sterilized silicone tube with a length of 8 mm (inside diameter 1.3 mm, and outside diameter 1.8 mm) to a depth of 3.5 mm so that a space of 1 mm might be formed in the middle of the tube. The ends of the nerve were fixed and the nerve was put back to the muscular tissue together with the tube, after which the incised part was sutured. On the seventh day, each test compound dissolved in distilled water was orally administered in a dose of 1 mg/kg, and thereafter the test compound was administered once a day for 13 days in the same manner as above.
Twenty-one days after cutting the nerve, the sciatic nerve was exposed again under pentobarbital anesthesia, and the nerve in the femoral region and the crural region was separated from the surrounding connective tissues, after which the silicone tube at the cut part was removed. A stimulation electrode was set on the proximal side with respect to the cut position, and a recording electrode was set at the most distal position in the crural region. An electric stimulus (voltage: 2 V, delay: 1 msec, and duration: 100 μsec) was given, and an action potential induced by the stimulus was recorded. The recording electrode was gradually moved toward the proximal, and the distance between the cut position and the most distal position at which an action potential had been obtained was measured as regeneration distance. Only distilled water was administered to a control group.
The sciatic nerve regeneration rate of the test compound was calculated according to the following expression: (regeneration distance of drug-treated group)/(regeneration distance of control group)×100 (%)

[1] = tested on: cultured neurons from cerebral cortices; assay: Activity to inhibit the neuronal death induced by Aβ (MTT assay); format: cell-based, Wistar strain rats; settings: concentration of 1 μM; Aβ (25 to 35 residues) 20 μmol/L
Protocol: [Activity to Inhibit the Neuronal Death Induced by Aβ]
Inhibitory effect on the death of cultured neurons induced by Aβ was investigated by modifying the method described in Brain Res., vol. 639, page 240 (1994).
Cerebral cortices isolated from the brains of embryos (aged 17 to 19 days) of Wistar strain rats were sliced, and then neurons were dissociated by trypsin treatment. The cells were seeded into a 48-well tissue culture plate at a density of 1×10^5 cells per well and cultured under conditions of 5% CO2 and 37° C. on Dulbecco's modified Eagle's medium added B27 supplement (available from GIBCO BRL) and 3.6 mg/mL glucose.
On the 12th to 13th day of the culture, a potassium chloride solution was added to the medium to adjust the final concentration of potassium chloride to 25 mmol/L. Immediately after this addition, each test compound was added to the medium. After 24 hours, Aβ (a peptides comprising 25 to 35 residues) dissolved in distilled water was added to the medium at a final concentration of 20 μmol/L. After another 24 hours, the medium was replaced with Dulbecco's modified Eagle's medium added B27 supplement and 3.6 mg/mL glucose and test compound.
The inhibitory activity of the test compound against the death of cultured neurons was determined by inhibition against the decrease of reducing ability of MMT. That is, MTT assay [J. Immuno. Methods, vol. […] Inhibition rate=[(MTT assay value of a group treated with Aβ and the drug)−(MTT assay value of a group treated with Aβ)]/[MTT assay value of an untreated group−MTT assay value of a group treated with Aβ]×100 (%).

[2] = Metabolism in human liver microsomes; format: in vitro ADME; settings: incubation at 37° C. for 60 minutes, pooled human liver microsomes, NADPH generating system
Protocol: [Metabolism in Human Liver Microsomes]
In a test tube were placed 50 μL of 100 mmol/L potassium phosphate buffer (pH 7.4) and 25 μL of 3 mg protein/mL pooled human liver microsomes (available from Gentest Inc.), and a solution prepared by blending 10 μL of 66 mmol/L sodium glucose 6-phosphate, 10 μL of 10 units/mL glucose 6-phosphate dehydrogenase, 10 μL of 26 mmol/L nicotinamide adenine dinucleotide phosphate oxidized form, 10 μL of 66 mmol/L magnesium chloride and 135 μL of 100 mmol/L potassium phosphate buffer (pH 7.4) was added thereto, followed by preincubation for 5 minutes. Thereto was added 50 μL of each test compound to a concentration of 6 μmol/L to initiate the reaction, and incubation was carried out at 37° C. for 60 minutes (final volume: 300 μL). The reaction was terminated by the addition of 600 μL of acetonitrile, followed by centrifugation at 12000×g and at 4° C. for 15 minutes. The supernatant was separated, concentrated by centrifugation under reduced pressure, and then subjected to high performance liquid chromatography, and the amount of the residual test compound after the metabolic reaction was determined.
The residual rate was calculated by the following equation: Residual rate (%)=[(peak area due to the test compound after 60 minutes of the reaction)/(peak area due to the test compound in the case of stopping the reaction by adding acetonitrile simultaneously with the addition of the test compound after the preincubation)]×100

| melting point | SMILES | neutrite outgrowth acceleration rate (PC12 cells) | sciatic nerve regeneration rate (sciatic nerve) | inhibition rate against decrease of MTT assay value induced by Aβ [1] | residual rate [2] |
| --- | --- | --- | --- | --- | --- |
| 101 to 102 °C | OC1CN(CCOCCc2ccc3sccc3c2)C1 (as salt: hydrochloride) [Example 2, 1-{2-[2-(1-benzothiophen-5-yl)ethoxy]ethyl}-3-azetidinol hydrochloride] | – | – | – | – |
| – | OC1CN(CCOCCc2ccc3sccc3c2)C1 [Example 2, 1-{2-[2-(1-benzothiophen-5-yl)ethoxy]ethyl}-3-azetidinol hydrochloride] | 265% | – | – | – |
| – | OC1CN(CCCOCCc2ccc3ccsc3c2)C1 [Example 4, 1-{3-[2-(1-benzothiophen-6-yl)ethoxy]propyl}-3-azetidinol hydrochloride] | – | 167% | 63% | 80% |
| – | OC1CN(CCCOCCc2cc3ccccc3s2)C1 [Example 6, 1-{3-[2-(1-benzothiophen-2-yl)ethoxy]propyl}-3-azetidinol hydrochloride] | 300% | – | 48% | – |
| – | OC1CN(CCCOCCc2ccc3sccc3c2)C1 [Example 10, 1-{3-[2-(1-benzothiophen-5-yl)ethoxy]propyl}-3-azetidinol hydrochloride] | – | 186% | 42% | 70% |
| – | OC1CN(CCCOCCc2cccc3sccc23)C1 [Example 12, 1-{3-[2-(1-benzothiophen-4-yl)ethoxy]propyl}-3-azetidinol hydrochloride] | 299% | 142% | – | 83% |
| – | OC1CN(CCCOCCc2csc3ccccc23)C1 [Example 14, 1-{3-[2-(1-benzothiophen-3-yl)ethoxy]propyl}-3-azetidinol hydrochloride] | 207% | 150% | 48% | 75% |
| – | OC1CCN(CCOCCc2cccc3ccccc23)C1 (stereo not shown) [Example 29, 1-{2-[2-(1-naphthyl)ethoxy]-ethyl}-3-pyrrolidinol oxalate] | 212% | – | – | – |
| – | O[C@H]1CCN(CCOCCc2ccc3sccc3c2)C1 [Example 31, (3S)-1-{2-[2-(1-benzothiophen-5-yl)ethoxy]ethyl}-3-pyrrolidinol oxalate] | – | 155% | 50% | – |
| – | O[C@@H]1CCN(CCOCCc2ccc3sccc3c2)C1 [Example 33, (3R)-1-{2-[2-(1-benzothiophen-5-yl)ethoxy]ethyl}-3-pyrrolidinol oxalate] | – | 161% | 54% | – |
| – | COc1cc2ccoc2cc1CCOCCN1CCC(O)C1 (stereo not shown) [Example 51, 1-{2-[2-(5-methoxy-1-benzofuran-6-yl)ethoxy]ethyl}-3-pyrrolidinol oxalate] | 216% | – | – | – |
| – | OC1CCN(CCCOCCc2ccc3sccc3c2)C1 (stereo not shown) [Example 59, 1-{3-[2-(1-benzothiophen-5-yl)ethoxy]propyl}-3-pyrrolidinol hydrochloride] | 241% | – | – | – |
| – | OC1CCN(CCCOCCc2ccc3occc3c2)C1 (stereo not shown) [Example 61, 1-{3-[2-(1-benzofuran-5-yl)ethoxy]propyl}-3-pyrrolidinol hydrochloride] | – | – | 52% | 74% |
| – | OC1CCN(CCOCCc2ccc3ccccc3c2)C1 (stereo not shown) [Example 69, 1-{2-[2-(2-naphthyl)ethoxy]ethyl}-3-pyrrolidinol oxalate] | 233% | – | 70% | 74% |
| – | O[C@@H]1CN(CCOCCc2ccc3sccc3c2)C[C@@H]1O [Example 71, (3R, 4S)-1-{2-[2-(1-benzothiophen-5-yl)ethoxy]ethyl}-3,4-pyrrolidinediol hydrochloride] | 183% | – | – | 80% |
| – | NC1CCN(CCCOCCc2ccc3sccc3c2)C1 (stereo not shown) [Example 74, 1-{3-[2-(1-benzothiophen-5-yl)ethoxy]propyl}-3-pyrrolidinamine oxalate] | 246% | – | 50% | 71% |
| – | CN(C)C1CCN(CCCOCCc2ccc3sccc3c2)C1 (stereo not shown) [Example 80, 1-{3-[2-(1-benzothiophen-5-yl)ethoxy]propyl}-N,N-dimethyl-3-pyrrolidinamine dihydrochloride] | 190% | – | 75% | – |
| – | OC1CN(CCCOCCc2ccc3sccc3c2)C1 [Example 81, 1-{3-[2-(1-benzothiophen-5-yl)ethoxy]propyl}-3-azetidinol 1/2 fumarate] | 190% | – | – | – |
